Measurements reported in patent publication US9155804B2, “Contrast enhancement agents and method of use thereof” (General Electric Company, priority 2012, dated 2015).

Tests used:
[1] = system: MATBIII breast cancer cells; assay: Dynamic contrast enhanced MR tumor imaging in MATBIII tumor bearing mice; format: in vivo, SCID mice; settings: DCE MR, dose 0.2 mmol/kg Gd, Fe, mammary MBIII rodent tumor model
Protocol: Cell Preparation: MATBIII breast cells (available from ATCC®) were trypsinized using 1× trypsin-EDTA. The cells were washed using IX phosphate buffered saline (PBS) and aliquots of 2×10^6 cells were made in 1×PBS (100 uL). Prior to injection into the subject, 50 μL of basement membrane matrix (Matrigel®, BD Biosciences) was added to each aliquot.
Tumor Induction: All procedures involving animals were completed under protocols approved by the GE Global Research Institutional Animal Care and Use Committee. Female, 5-7 weeks old, SCID mice (Charles River Laboratories) were briefly anesthetized with 2% isoflurane and injected with 1×10^6 MATBIII breast cancer cells in 1×PBS (100 μL) and Matrigel SC to their left flank. The animals were monitored for 7 days post tumor cell injections at which point, precontrast agent MR images of the resulting lesions, typically 1 cm in diameter, were collected using the sequences described below.

[2] = Hydrodynamic size assay (dynamic light scattering); format: physicochemical
Protocol: The dilution was carried out to yield approximately 20,000 counts per second during the DLS measurement and the sample was allowed to equilibrate for 10 minutes in the instrument prior to data collection.

For `CNC[C@H](O)[C@@H](O)[C@H](O)[C@H](O)CO.CNC[C@H](O)[C@@H](O)[C@H](O)[C@H](O)CO.O=C([O-])CN(CCN(CC(=O)[O-])CC(=O)O)CCN(CC(=O)[O-])CC(=O)O.[Gd+3]` [Magnevist - Gd], the “Tumor-to-muscle signal enhancement ratio (Tumor: Muscle), Average” value [1] was 3.6 and the “Agent size (hydrodynamic diameter)” value [2] was “Magnevist - Gd (1 nm)”.
